Like-named read-outs stand apart in the source and are kept apart here.

We go through 6 compounds from patent US6423706B1, “Antimicrobial locks comprising taurinamide derivatives and carboxylic acids and/or salts thereof” (Biolink Corporation, priority 1998, dated 2002).

One data set deals with S. epidermis. The conditions noted are these: cited from earlier work.
Another data set has as its system Candida albicans. Particulars: oral isolate, human buccal epithelial cells; concentration dependent; cited from earlier work.
Data set [1] concerns E. coli. Particulars: urine isolate, human uroepithelial cells; concentration dependent; cited from earlier work.
For data set [2] the following is noted: mice; cited from earlier work.
A short description of data set [3]: Long term stability of taurolidine in solution. The data set is classed as physicochemical. The conditions noted are these: citric acid and sodium citrate buffer, compared with PVP solutions. An excerpt: In addition, citric acid is a known antioxidant. The buffer system created by adjustment of pH using sodium hydroxide also resists changes in the pH due to the oxidation of formaldehyde to formic acid.

For data set [4], the system named is Staphylococcus Aureus (VISA, MRSA). The conditions noted are these: pH 7.0 to pH 5.0; cited from earlier work.
The next data set relates to B. fragilis. The conditions noted are these: 0.2 mL of 20% solution in 5% polyvinyl pyrrolidone intravenous; B. fragilis intraperitoneal; cited from earlier work.
Another data set concerns whole blood. Put plainly: Clotting of whole pig blood mixed with taurolidine solution with or without ACD-A. Particulars: pig blood filled to 30 mL, inspected after 30 minutes. How it is done:
A 0.5% solution of taurolidine in Ringer-lactate solution (Thomae, Biberach, Germany) was introduced into each of four polyethylene bottles having a 30 mL volume. Filling volumes were 5, 10, and 15 mL. One bottle was filled with 5 mL of the taurolidine solution and 2 mL ACD-A (Fresenius, Bad Homburg, Germany) solution. ACD-A solution is used for the conservation of whole blood and contains per liter: 22.0 grams of sodium citrate dihydrate, 7.3 grams of citric acid and 34.5 grams of glucose monohydrate.
Blood was collected at the slaughter house from a female pig directly from the slaughter wound into the containers that were then filled up to the 30 mL level. The containers were capped and gently moved to mix blood with the solution. The containers were inspected after 30 minutes. Blood in the containers containing only taurolidine was clotted, but the blood in the container containing the mixture of taurolidine and ACD-A was not clotted.

Data set [5] concerns E. coli. Particulars: 0.2 mL of 20% solution in 5% polyvinyl pyrrolidone intravenous; E. coli intraperitoneal; cited from earlier work.
For data set [6] the following is noted: mouse, in vivo; cited from earlier work.
The conditions of data set [7]: clinical and bacteriologic outcomes, endotoxemia, organ failure, 28-day mortality; cited from earlier work.

In the case of heparin, in the data set with S. epidermis (isolate from catheter of infected patient), the Inhibition of growth result is “does not inhibit the growth”.

For the compound `CN[C@H](CC(C)C)C(=O)N[C@H]1C(=O)N[C@@H](CC(N)=O)C(=O)N[C@H]2C(=O)N[C@H]3C(=O)N[C@H](C(=O)N[C@H](C(=O)O)c4cc(O)cc(O)c4-c4cc3ccc4O)[C@H](O)c3ccc(c(Cl)c3)Oc3cc2cc(c3O[C@@H]2O[C@H](CO)[C@@H](O)[C@H](O)[C@H]2O[C@H]2C[C@](C)(N)[C@H](O)[C@H](C)O2)Oc2ccc(cc2Cl)[C@H]1O` [Vancomycin], the Bactericidal concentration with S. epidermis (initial inocula 10^3 CFU/mL) was 6.7 µg/mL.

On to `[H]/N=C(\N/C(=N/[H])NCCCCCCNC(=N)NC(=N)Nc1ccc(Cl)cc1)Nc1ccc(Cl)cc1` [chlorhexidine], for which the Anti-adherence activity entry with Candida albicans and with E. coli [1] was “significant” in each case.

In the case of povidone-iodine, the Anti-adherence activity entry in the data set with Candida albicans and in the data set on E. coli [1] was “significant” each time.

`O=C(O)CN(CCN(CC(=O)O)CC(=O)O)CC(=O)O` [disodium EDTA, ethylenediaminetetraacetic acid]: the Bactericidal concentration with S. epidermis (initial inoculum 10^3 CFU per mL, in 24 hours) was 20000 µg/mL.

Take `O=S1(=O)CCN(CN2CCS(=O)(=O)NC2)CN1` [taurolidine, bis-(1,1-dioxo-perhydroxy-1,2,4-thiadiazin-4-yl)methane]: the “Intraperitoneal LD50” value in [2] was approximately 1500 mg/kg. In addition, the “Stability of taurolidine in solution” value in data set [3] was “increases the stability”. Besides, in data set [4], the “Dependence of activity on pH” value is listed as “increases with decreasing pH”. The Mortality rate entry in the data set on B. fragilis and in the data set with E. coli [5] was “very significantly reduce the mortality rate” in each case. Also, the “Blood clotting on inspection” value in the data set on whole blood was “clotted”. The Anti-adherence activity result with Candida albicans and in the data set with E. coli [1] was “significant” throughout. Moreover, the “Taurolidine solubility believed reachable” value (additional citric acid, without polyol or PVP) is recorded as 5%. Under “approximately 2.6% by weight citric acid, no PVP or polyol, pH 5.2 to 5.3”, the “Taurolidine in solution achieved” value worked out at 4.0 weight percent. Further, the Teratogenicity entry in [6] is recorded as “non-teratogenic”. For the same compound, the “Therapeutic effect on outcome” value in data set [7] was “no beneficial therapeutic effect”.
